From ChEMBL document CHEMBL5137078, “Lysine-Tethered Stable Bicyclic Cationic Antimicrobial Peptide Combats Bacterial Infection in Vivo” (J Med Chem, 2022) come the findings set out here.

Type in all cases: functional
Test [1] deals with Escherichia coli. Put plainly: Antibacterial activity against multidrug-resistant Escherichia coli BNCC 133264 measured after 16 hrs by microdilution assay.
For the next test, the system named is Listeria monocytogenes. Put plainly: Antibacterial activity against Listeria monocytogenes measured after 16 hrs by microdilution assay. For orientation: In broth dilution the organism is exposed to a series of concentrations in liquid medium.
The subject of test [2] is Pseudomonas aeruginosa. Put plainly: Antibacterial activity against Pseudomonas aeruginosa BNCC 125486 measured after 16 hrs by microdilution assay.
Test [3] has as its system Pseudomonas aeruginosa. Put plainly: Antibacterial activity against multidrug-resistant Pseudomonas aeruginosa BNCC 125486 measured after 16 hrs by microdilution assay.
Another test deals with Acinetobacter baumannii. The test is described as follows: Antibacterial activity against multidrug-resistant Acinetobacter baumannii measured after 16 hrs by microdilution assay.
Test [4] concerns Staphylococcus aureus. Put plainly: Antibacterial activity against Staphylococcus aureus BNCC 186335 measured after 16 hrs by microdilution assay.
Test [5] has as its system Staphylococcus aureus. The test is described as follows: Antibacterial activity against methicillin-resistant Staphylococcus aureus BNCC 186335 measured after 16 hrs by microdilution assay.
For test [6], the system named is Escherichia coli. The test is described as follows: Antibacterial activity against Escherichia coli BNCC 133264 measured after 16 hrs by microdilution assay.

Structures are written as SMILES. In brackets after ≈: the same amount, converted by molar mass.

In the case of `CCN1CCN(C(=O)N[C@@H](C(=O)N[C@@H]2C(=O)N3C(C(=O)O)=C(CSc4nnnn4C)CS[C@H]23)c2ccc(O)cc2)C(=O)C1=O` [CEFOPERAZONE], the MIC99.9 in the test with Escherichia coli [1] was more than 128 mg/L; with Listeria monocytogenes, 16 mg/L (≈ 24.8 µM); against Pseudomonas aeruginosa [2] it was 2 mg/L (≈ 3.1 µM); against Pseudomonas aeruginosa [3], 128 mg/L (≈ 198 µM); in the test on Acinetobacter baumannii it was more than 128 mg/L; in the test on Staphylococcus aureus [4] it was less than 1 mg/L. In addition, the MIC99.9 was more than 128 mg/L in the test with Staphylococcus aureus [5] and less than 1 mg/L in the test on Escherichia coli [6].
For `CN[C@H](CC(C)C)C(=O)N[C@H]1C(=O)N[C@@H](CC(N)=O)C(=O)N[C@H]2C(=O)N[C@H]3C(=O)N[C@H](C(=O)N[C@H](C(=O)O)c4cc(O)cc(O)c4-c4cc3ccc4O)[C@H](O)c3ccc(c(Cl)c3)Oc3cc2cc(c3O[C@@H]2O[C@H](CO)[C@@H](O)[C@H](O)[C@H]2O[C@H]2C[C@](C)(N)[C@H](O)[C@H](C)O2)Oc2ccc(cc2Cl)[C@H]1O` [VANCOMYCIN], the MIC99.9 in the test with Escherichia coli [1] was more than 128 mg/L; in the test with Listeria monocytogenes, 1 mg/L (≈ 0.69 µM); in the test on Pseudomonas aeruginosa [2] it was more than 128 mg/L; with Pseudomonas aeruginosa [3], more than 128 mg/L; with Acinetobacter baumannii, more than 128 mg/L; against Staphylococcus aureus [4], 2 mg/L (≈ 1.38 µM). Further, the MIC99.9 against Staphylococcus aureus [5] was 2 mg/L (≈ 1.38 µM); against Escherichia coli [6], more than 128 mg/L.
